Measurements taken from patent US5610320A, “Sulfonamide phenyl substituted compounds” (Eisai Co., Ltd., priority 1990, dated 1997).
≈ marks a conversion by molar mass, not a printed value. Read-outs that look alike come from different tables or passages of the source.

What was measured:
[1] = test system: colon 38 (cancer of the colon of mice); format: in vivo, mice (BDF1, female); settings: once a day for 8 days, 21 days after transplantation
Description: In vivo antineoplastic test on colon 38 (cancer of the colon of mice):
About 75 mg of colon 38 was subcutaneously transplanted in the side of the body of each of 7-week old female BDF1 mice. A compound of the present invention was suspended in 0.5% methylcellulose and oral administration of a predetermined amount of the suspension once a day was started on the next day and continued for 8 days. 0.5% methylcellulose was orally given to a control group. The control group consisted of 10 mice and the group to which the medicine was given consisted of 6 mice.
21 days after the transplantation, the tumors were taken out and weighed. The tumor growth inhibition ratio of the group to which the medicine was given to the control group was determined according to the following formula:
Growth inhibition ratio (%) (C-T)/C×100
T: average weight of tumor in the group to which the test compound was given
C: average weight of tumor in the control group

[2] = test system: KB cells (human nasopharyngeal cells); assay: In vitro antineoplastic test on KB cells (MTT, 3 days); format: cell-based; settings: 72 h, KB cells in vitro, 37° C. for three days, MTT, read-out: IC50
Description: In vitro antineoplastic test on KB cells (human nasopharyngeal cells):
1.25×10^3 (0.1 ml) of KB cells suspended in a RPMI 1640 medium (a product of Nissui Seiyaku Co., Ltd.) containing 20% of bovine fetus serum, penicillin (100 units/ml), streptomycin (100 μg/ml), mercaptoethanol (5×10^-5 M) and sodium pyruvate (1 mM) were placed in each hole of a 96-hole flat-bottom microplate and cultured in an incubator containing 5% of carbon dioxide at 37° C. for one day.
This concentration was the maximum one, which was subjected to two-fold serial dilution with 0.1% bovine fetus serum RPMI 1640 culture liquid containing 0.5% of dimethyl sulfoxide. It was added to the KB cells in each hole of the above-described culture plate in an amount of 0.1 ml and cultured in an incubator containing 5% of carbon dioxide at 37° C. for three days.
After the completion of the culture, 0.05 ml of MTT [3-(4,5-dimethylthiazol-2-yl)-2,5-diphenyltetrazolium bromide] solution (3.3 mg/ml) was added to each hole and the culture was conducted for an additional 1 h. The supernatant liquid was removed from each hole by suction and a formazan thus formed was dissolved in 0.1 ml of dimethyl sulfoxide. The absorbance at 540 nm was determined with a microplate reader to use as an index of a viable count. A percentage inhibition was calculated according to the following formula and the concentration of the test compound for 50% inhibition (IC50) was determined.
Percentage inhibition (%)=(C-T)/C×100
T: absorbance of the hole containing the test compound
C: absorbance of the hole containing no test compound

BDF1 mice = test system: BDF1 mice; design: species or system female); settings: mouse, in vivo, 1651 mg/kg
Description: EXPERIMENTAL EXAMPLE 3: Toxicity tests
No mouse died, even with 1651 mg/kg of the compound.

IC50 [2] [µg/mL]	SMILES	Growth inhibition ratio ([1]; 100 mg/kg/day oral) [%]	viability observed for 7 days after the administration (BDF1 mice)	Growth inhibition ratio ([1]; 50 mg/kg/day oral) [%]
1.5 (≈ 4.42 µM)	Cc1ccc(S(=O)(=O)Nc2cccnc2Nc2ccccc2)cc1 [Example 1, N-(2-Anilino-3-pyridyl)-p-toluenesulfonamide]	80	–	–
1.7 (≈ 4.81 µM)	CCc1ccc(S(=O)(=O)Nc2cccnc2Nc2ccccc2)cc1 [Example 2, N-(2-Anilino-3-pyridyl)-4-ethylbenzenesulfonamide]	69	–	–
1 (≈ 2.81 µM)	COc1ccc(S(=O)(=O)Nc2cccnc2Nc2ccncc2)cc1 [Example 7, 4-Methoxy-N-[2-[(4-pyridyl)amino]-3-pyridyl]benzenesulfonamide]	–	–	61
0.033 (≈ 0.083 µM)	COc1ccc(S(=O)(=O)Nc2ccccc2NC(=O)c2cccnc2C)cc1 [Example 70, N-[2-(4-Methoxybenzenesulfonamido)phenyl]-2-methylnicotinamide]	–	–	63

SMILES	IC50 [2] [µg/mL]	Growth inhibition ratio ([1]; 100 mg/kg/day oral) [%]	viability observed for 7 days after the administration (BDF1 mice)	Growth inhibition ratio ([1]; 50 mg/kg/day oral) [%]
COc1ccc(S(=O)(=O)Nc2cccnc2Nc2ccccc2)cc1 [Example 3, N-(2-Anilino-3-pyridyl)-4-methoxybenzenesulfonamide]	0.27 (≈ 0.76 µM)	98	No mouse died	–
COc1ccc(Nc2ncccc2NS(=O)(=O)c2ccc(OC)cc2)cc1 [Example 4, 4-Methoxy-N-[2-[(4-methoxyphenyl)amino]-3-pyridyl]benzenesulfonamide]	1.9 (≈ 4.93 µM)	99	No mouse died	–
COc1ccc(S(=O)(=O)Nc2cccnc2Nc2ccc(O)cc2)cc1 [Example 6, N-[2-[(4-Hydroxyphenyl)amino]-3-pyridyl]-4-methoxybenzenesulfonamide]	0.42 (≈ 1.13 µM)	98	No mouse died	–
